Measurements published in the NIST ThermoML archive (doi:10.1021/acs.jced.8b01233).
Where “and” joins values, the source holds several entries; their conditions need not be identical. Identical values can stand only once.

Conditions: for viscosity / mass density / speed of sound: 102 kPa, Liquid; for viscosity: Concentric cylinders viscometry; for mass density: Vibrating tube method; for speed of sound: Frequency=3 MHz, Single path-length method; for surface tension liquid-gas: Pendant drop shape

CCCCC1CCCCC1 [butylcyclohexane]
Conditions | mass density [kg/m3] | speed of sound [m/s] | surface tension liquid-gas [mN/m] | viscosity [mPa·s]
253.15 K | 829.9 | – | – | 3.08
288.15 K | 803.07 | 1348.8 | – | –
293.15 K | 799.33 | 1328.3 | – | 1.32
294.5 K | – | – | 26.6 | –
298.15 K | 795.57 | 1308.1 | – | –
303.15 K | 791.81 | 1288 | – | 1.11
313.15 K | 784.27 | 1248.6 | – | 0.95
323.15 K | 776.71 | 1210.1 | – | 0.826
333.15 K | 769.1 | 1172.6 | – | 0.729

CCCCc1ccccc1 [butylbenzene]
Conditions | mass density [kg/m3] | speed of sound [m/s] | surface tension liquid-gas [mN/m] | viscosity [mPa·s]
253.15 K | 892.8 | – | – | 2.36
288.15 K | 864.7 | 1373.7 | – | –
293.15 K | 860.69 | 1353.8 | – | 1.04
295 K | – | – | 28.8 | –
298.15 K | 856.68 | 1334.1 | – | –
303.15 K | 852.65 | 1314.5 | – | 0.891
313.15 K | 844.6 | 1276.1 | – | 0.773
323.15 K | 836.51 | 1238.4 | – | 0.679
333.15 K | 828.38 | 1201.7 | – | 0.601

CC(CC(C)(C)C)CC(C)(C)CC(C)(C)C (stereo unspecified) [2,2,4,4,6,8,8-heptamethylnonane]
Conditions | mass density | speed of sound [m/s] | surface tension liquid-gas [mN/m] | viscosity [mPa·s]
253.15 K | 811.5 kg/m3 and 811.4 kg/m3 | – | – | 14.1
288.15 K | 787.84 kg/m3 and 787.76 kg/m3 | 1305.1 | – | –
293.15 K | 784.51 kg/m3 and 784.4 kg/m3 | 1286 | – | 3.73
295 K | – | – | 24.2 | –
298.15 K | 781.15 kg/m3 and 781.05 kg/m3 | 1267.1 | – | –
303.15 K | 777.8 kg/m3 and 777.7 kg/m3 | 1248.1 | – | 2.96
313.15 K | 771.09 kg/m3 and 770.99 kg/m3 | 1211.8 | – | 2.4
323.15 K | 764.36 kg/m3 and 764.27 kg/m3 | 1176.1 | – | 1.98
333.15 K | 757.62 kg/m3 and 757.53 kg/m3 | 1141.3 | – | 1.66

CCCCCCCCCCCC [dodecane]
Conditions | mass density [kg/m3] | speed of sound [m/s] | surface tension liquid-gas [mN/m] | viscosity [mPa·s]
288.15 K | 752.41 | 1317.4 | – | –
293.15 K | 748.79 | 1297.9 | – | 1.51
295 K | – | – | 24.9 | –
298.15 K | 745.16 | 1278.7 | – | –
303.15 K | 741.53 | 1259.5 | – | 1.25
313.15 K | 734.25 | 1221.7 | – | 1.06
323.15 K | 726.94 | 1184.5 | – | 0.916
333.15 K | 719.59 | 1148.2 | – | 0.798
